The nature of series [1]: Intrinsic clearance in mouse hepatocyte. The format is in vitro ADME. The conditions noted are these: mouse, mouse hepatocytes, time points 0-120 minutes, read-out: In vitro T1/2 in mouse hepatocytes. As to the method: (§1) A stock of 100 μM test compound was prepared by diluting the 10 mM test compound in DMSO with a solution of 50% acetonitrile and 50% water. In a 96-well non-coated plate, 198 μL of hepatocytes was pipetted, and the plate was placed in the incubator on an orbital shaker to allow the hepatocytes to warm for 10 minutes. To this solution was added 2 μL of the 100 μM test compound to start the reaction, and the plate was placed on an orbital shaker. At time points of 0, 15, 30, 60, 90 and 120 minutes, the aliquots were mixed with a solution of acetonitrile and internal standard (100 nM alprazolam, 200 nM labetalol, and 2 μM ketoprofen) to terminate the reaction. The reaction solution was then vortexed for 10 minutes and centrifuged at 4,000 rpm for 30 minutes at 4° C. […] of the supernatant was transferred to one new 96-well plate, centrifuged at 4,000 rpm for 30 minutes at 4° C., and 100 μL of the supernatant was transferred to a new 96-well plate ensuring the pellet was not disturbed. 100 μL of ultrapure water was added to all samples for analysis by LC-MS/MS.
(§2) The in vitro half-life (T1/2) was determined by the linear regression of the natural logarithm of the remaining percentage of the parent drug vs. incubation time curve. The slope value (k) of the curve was then substituted into the following equation to determine the in vitro half-life
(§3) The in vitro intrinsic clearance (in vitro CLint, in μL/min/10^6 cells) was determined by the following equation.
(§4) Where volume of incubation=0.2 mL and number of hepatocytes per well=0.1×10^6 cells.
(§5) Bioanalytical method: Column—Phenomenex Synergi 4μ Hydro-PR 80A (2.0×30 mm).
(§6) Mobile phase—0.1% formic acid in water (solvent A) and 0.1% formic acid in acetonitrile (solvent B). Column temperature—room temperature. Injection volume—10 μL. MS analysis—API 4000 instrument from AB Inc (Canada) with an ESI interface.

The next series relates to MV-4-11. Description: Cell Titer-Blue cell viability assay, MV-4-11 (AML). In kind it is cell-based. The conditions noted are these: Homo sapiens, MV4-11; AML cell line MV-4-11, 72 hrs exposure. The protocol:
(§7) Anti-cancer efficacy of exemplary compounds of this application was assessed in vitro in different cancer cell lines. Cell viability was examined following treatment at various concentration of inhibitor (0.097656-50 μM) using a cell Titer-Blue cell viability assay. 1×10^4 cells/well were plated in 96-well assay plates in culture medium. All cells were grown in DMEM, IMDM and RPMI-1640 supplemented with 10% FBS. After 24 hrs, test compounds and vehicle controls were added to appropriate wells so the final volume was 100 μl in each well. The cells were cultured for the desired test exposure period (72 hrs) at 37° C. and 5% CO2. The assay plates were removed from 37° C. incubator and 20 μl/well of CellTiter-Blue® Reagent was added. The plates were incubated using standard cell culture conditions for 1-4 hours and the plates were shaken for 10 seconds and fluorescence recorded at 560/590 nm.
(§8) Compound I and II were tested for their efficacy against selected chronic myelogenous leukemia, acute myeloid leukemia and healthy human lung cell lines using the protocol stated above.

In a further series the test system is K562. Description: Cell Titer-Blue cell viability assay, K562 (CML). The settings on record: Homo sapiens; CML cell line K562, 72 hrs exposure. The format is cell-based. As to the method:
as §7, §8

The nature of series [2]: Bioavailability / PK study in CD-1 mice (IP injection). The format is in vivo. The conditions noted are these: 20 mg/kg IP, plasma. As to the method: The study groups for PK for compound I, II and comparative experiments with AC-3-19 and JPX-0371 experiments are shown in Table 2.
All animals had free access to food and water. Dose formulation processing during dosing: The formulations will be kept stirred at room temperature for at least 15 min before dosing and during the dosing. Pharmacokinetics (PK) Schedule shown below in Table 3.
Approximately 0.03 mL blood was collected at each time point. Blood of each sample was transferred into plastic micro centrifuge tubes containing heparin-Na as anticoagulant. Collection tubes with blood samples and anticoagulant were inverted several times for proper mixing of the tube contents and then placed on wet ice prior to centrifugation for plasma. The blood samples were centrifuged at 4000 g for 5 min at 4° C. to obtain plasma. The samples were stored in a freezer at −75±15° C. prior to analysis. The study used CD-1 mice (male), n=3, at age approx. 6-8 weeks (20-30 g).
Concentrations of compounds in the plasma samples were analyzed using a LC-MS/MS method. WinNonlin (Phoenix™, version 6.1). Other similar software could have also been used for pharmacokinetic calculations. Pharmacokinetic parameters were calculated, whenever possible from the plasma concentration versus time data: IP parameters including T1/2, Cmax, Tmax, AUClast, AUCinf, MRT are calculated.

A further series deals with HaCat. The series is described as follows: Cell Titer-Blue cell viability assay, HaCat (healthy cell line). The format is cell-based. The conditions noted are these: Homo sapiens, 72 hrs exposure. The protocol:
as §7

The next series relates to Mouse Hepatocyte. Description: Intrinsic clearance in mouse hepatocyte. The format is in vitro ADME. The settings on record: time points 0-120 minutes. The protocol:
as §1, §2, §3, §4, §5, §6

A further series deals with MOLM-13. Description: Cell Titer-Blue cell viability assay, MOLM-13 (AML). In kind it is cell-based. The settings on record: Homo sapiens; AML cell line MOLM-13, 72 hrs exposure. The protocol:
as §7, §8

The next series relates to MRC-9. The series is described as follows: Cell Titer-Blue cell viability assay, MRC-9 (healthy cell line). The conditions noted are these: Homo sapiens, MRC9; healthy cell line MRC-9, 72 hrs exposure. The format is cell-based. As to the method:
as §7, §8

Another series has as its system NIH 3T3. The series is described as follows: Cell Titer-Blue cell viability assay, NIH 3T3. The format is cell-based. The conditions noted are these: Mus musculus, NIH3T3; NIH 3T3 cells, 72 hrs exposure. As to the method:
as §7

The test system of series [3] is phosphorylation of Shc, Src, Jak-1/2, Erk1/2 or Akt. The settings on record: cited from earlier work.
Series [4] relates to xenograft models of lung or breast cancer. The settings on record: murine xenograft models of lung or breast cancer; cited from earlier work.
In series [5] the test system is non-transformed cells (NIH 3T3 cells, STAT3 null mouse embryo fibroblasts, or mouse thymus stromal cells). The conditions noted are these: cited from earlier work.
[6] abbreviates: male, CD-1, mouse, ip, 20 mg/kg, individual animal.
Where [7] appears, read: male, CD-1, mouse, ip, 20 mg/kg, mean N=3.
Setting [8] is: male, CD-1, mouse, ip, 20 mg/kg, read-out: t1/2 (converted).

Where “and” joins values, the source holds several entries; their conditions need not be identical. Equal values may be shown once. Read-outs that look alike come from different tables or passages of the source.

Consider `CC(C)(C)c1cc(CN(C(=O)CN(Cc2ccc(Cl)cc2)S(=O)(=O)c2c(F)c(F)c(F)c(F)c2F)c2ccc(C(=O)O)cc2)cc(C2CC2)c1` [Compound II], for which, in [1], the half-life at 1 µM turned out to be 0.767 h. The same molecule yielded an IC50 in the series on MV-4-11 of 480 nM.

Take `CC(C)(C)c1cc(CN(C(=O)CN(Cc2ccc(Cl)cc2)S(=O)(=O)c2c(F)c(F)c(F)c(F)c2F)c2ccc(C(=O)O)c(O)c2)cc(C2CC2)c1` [Compound I]: the half-maximal inhibitory concentration (IC50) was 4100 nM in the series on K562; 20000 nM in the series with HaCat; 1700 to 2500 nM with MOLM-13; 30000 nM in the series with MRC-9; 560 nM in the series with MV-4-11. The “AUC Extr” value is 0.346% and 0.385% and 0.325% in [2] (individual animal, 20 mg/kg); 0.352% in [2] (mean N=3). The AUCInf in [2] (individual animal, 20 mg/kg) is 7245 ng·h/mL and 6566 ng·h/mL. Besides, the AUClast in series [2] (individual animal, 20 mg/kg) is 7217 ng·h/mL and 6545 ng·h/mL. The peak concentration (Cmax) in series [2] (individual animal, 20 mg/kg) is 3290 ng/mL and 3480 ng/mL; in [2] (male, CD-1, mouse, ip, 20 mg/kg, individual animal, read-out: Cmax), 3010 ng/mL; in series [2] (male, CD-1, mouse, ip, 20 mg/kg, mean N=3, read-out: Cmax) it was 3260 ng/mL. Moreover, the MRT in series [2] (individual animal, 20 mg/kg) is 1.99 h and 1.81 h; in series [2] (male, CD-1, mouse, ip, 20 mg/kg, individual animal, read-out: MRT), 1.87 h; in series [2] (male, CD-1, mouse, ip, 20 mg/kg, mean N=3, read-out: MRT), 1.89 h. The t1/2 in [2] (individual animal, 20 mg/kg) was 3.91 h and 3.97 h. Further, the area under the curve AUC(0-inf) in series [2] (setting [6]) was found to be 5820 ng·h/mL; in [2] (setting [7]) it was 6540 ng·h/mL. The values for the exposure AUC(0-t) in series [2] (setting [6]) and in series [2] (setting [7]) were 5800 ng·h/mL and 6520 ng·h/mL, respectively. Besides, the half-life in series [2] (male, CD-1, mouse, ip, 20 mg/kg, individual animal, read-out: t1/2 (converted)) is 3.92 h; in series [2] (male, CD-1, mouse, ip, 20 mg/kg, mean N=3, read-out: t1/2 (converted)), 3.93 h; in series [2] (male, CD-1, mouse, ip, 20 mg/kg, read-out: calculated T1/2 (FIG. 6) (converted)) it was 3.9 h. The Tmax in [2] (male, mouse, mean N=3) came to 0.5 h. Also, in the series with Mouse Hepatocyte, the “In vitro T1/2 in mouse hepatocytes” value was 1.68 h. The half-life at 1 µM in [1] was determined as 1.67 h.

On to `O=C(O)c1ccc(N(Cc2cccc(C3CCCC3)c2)C(=O)CN(Cc2ccc(Cl)cc2)S(=O)(=O)c2c(F)c(F)c(F)c(F)c2F)cc1O` [JPX-062, 4-(2-((N-(4-chlorobenzyl)-2,3,4,5,6-pentafluorophenyl)sulfonamido)-N-(3-cyclopentylbenzyl)acetamido)-2-hydroxybenzoic acid], for which the half-life in [2] (setting [8]) was 0.94 h. In addition, the results for the IC50 in the series with MOLM-13 and with MV-4-11 were 6400 nM and 7900 nM, respectively.

Take `O=C(O)c1ccc(N(Cc2cccc(C3CCCC3)c2)C(=O)CN(Cc2c(F)c(F)c(F)c(F)c2F)S(=O)(=O)c2c(F)c(F)c(F)c(F)c2F)cc1` [JPX-303, 4-(N-(3-cyclopentylbenzyl)-2-((2,3,4,5,6-pentafluoro-N-((perfluorophenyl)methyl)phenyl)sulfonamido)acetamido)benzoic acid]: the IC50 was determined as 2600 nM in the series on K562, 5190 nM in the series with NIH 3T3 and 210 nM with MV-4-11. Further, the half-life in series [2] (setting [8]) was 0.35 h.

`O=C(O)c1ccc(N(Cc2cccc(C3CCCC3)c2)C(=O)CN(Cc2ccc(Cl)cc2)S(=O)(=O)c2c(F)c(F)c(F)c(F)c2F)cc1` [JPX-313, 4-(2-((N-(4-chlorobenzyl)-2,3,4,5,6-pentafluorophenyl)sulfonamido)-N-(3-cyclopentylbenzyl)acetamido)benzoic acid]: the half-life in series [2] (setting [8]) is 0.31 h. The results for the IC50 with MOLM-13 and with MV-4-11 were 1100 nM and 930 nM, respectively.

As to `O=C(O)c1ccc(N(Cc2cccc(C3CCCC3)c2)C(=O)CN(Cc2c(F)c(F)c(F)c(F)c2F)S(=O)(=O)c2c(F)c(F)c(F)c(F)c2F)cc1O` [JPX-320], the half-life in series [2] (setting [8]) was 0.861 h. In addition, the IC50 with MOLM-13 turned out to be 800 nM; in the series on MV-4-11, 1100 nM.

As for BP-1-102, the “effect on phosphorylation of Shc, Src, Jak-1/2, Erk1/2 or Akt” value in series [3] was “little or no effect”. Moreover, the “anti-tumor effect in vivo” value in series [4] is “dramatic regression in tumor volumes”. The “effect on non-transformed cells” value in [5] is recorded as “no effect”.

The values above are taken from patent publication US20220089531A1, “NEW […] ACID DERIVATIVES, PHARMACEUTICALLY ACCEPTABLE SALT THEREOF, COMPOSITION THEREOF AND METHOD OF USE THEREOF” (THE GOVERNING COUNCIL OF THE UNIVERSITY OF TORONTO, priority 2018, published 2022).
